# Results: patent US10179132B2, “Composition for inducing differentiation of multipotent neural stem cells into dopaminergic neurons and method for inducing differentiation of multipotent neural stem cells into dopaminergic neurons by using the same” (INDUSTRY-ACADEMIC COOPERATION FOUNDATION, YONSEI UNIVERSITY, priority 2015, dated 2019)
# Where a name gives a salt, the structure may show the parent alone.
# Legend:
# [1] = test system: mouse neural stem cells; experiment: Morphological analysis of treated neural stem cells; assay type: cell-based; settings: AS703026, AZD8330 10 μM; PD318088, Trametinib, Refametinib 1 μM; 4 days; FIG. 8A
# Method: (§1) Mouse neural stem cells were cultured in accordance with the procedure of Example 1. […] The cells were cultured for 4 days.
# (§2) Neurospheres were treated with TrypLE and separated into single cells, which were uniformly seeded into a culture dish coated with 15 μg/ml poly-L-ornithine and 10 μg/ml fibronectin. Following culture, the morphology of the cells was observed.
# (§3) In this example, it was confirmed whether dopaminergic neurons were differentiated from neural stem cells.
# [2] = test system: mouse neural stem cells; experiment: Real-time RT-PCR of neuronal / dopaminergic markers in cultured neural stem cells; assay type: cell-based; settings: 4 days; for Tuj1 (marker of neurons) expression / tyrosine hydroxylase (TH) expression: AS703026, AZD8330 10 μM, PD318088, Trametinib, Refametinib 1 μM; for Tuj1 (marker of neurons) expression: FIG. 8B; for tyrosine hydroxylase (TH) expression: FIG. 8C
# Method: Neural stem cells were isolated from the brain of a day 14.5 mouse embryo, treated with 10 ng/ml human basic fibroblast growth factor (bFGF) (Peprotech, Princeton, N.J.) and 20 ng/ml human epidermal growth factor (EGF) (Peprotech) in a N2 culture medium, and cultured in suspension in a 25 cm^2 flask (Nunc, Pittsburgh, Pa.) for 4 days.
# Neurospheres were treated with TrypLE and then separated into single cells, which were uniformly seeded into a culture dish coated with 15 μg/ml poly-L-ornithine and 10 μg/ml fibronectin. Following culture, the morphology of the cells was observed.
# The N2 culture medium was Dulbecco's modified Eagle's medium (DMEM)/F12 (1:1) supplemented with 100 μM putrescine, 30 nM selenite, 20 nM progesterone, 1.55 mg/ml d-(+)-glucose, 25 μg/ml insulin, […] apo-transferrin, 0.5 mM alanyl glutamine, 100 IU/ml penicillin, and 100 μg/ml streptomycin.
# as §1, §2
# To this end, real-time (RT) PCR analysis was performed on neuron-specific markers. On day 4 after in vitro differentiation, mRNA expression was identified. The numbers in the graph indicate average values of mRNA expression levels relative to the respective controls from real-time PCR analyses in triplicate.
# as §3
# [3] = test system: neural stem cells; experiment: Differentiation of neural stem cells into dopaminergic neurons (general statements, no separate method); assay type: cell-based, mouse; settings: MEK 1 inhibitor, no MEK 2 inhibition
# [4] = test system: ventral midbrains of embryos of pregnant mouse models; experiment: Intraperitoneal administration to pregnant mice; marker expression in embryonic ventral midbrains (immunocytochemistry, RT-PCR); assay type: in vivo
# Method: After the same amount of distilled water (D.W) as control was administered intraperitoneally to pregnant mouse models at 10.5 days of gestation daily for 4 consecutive days, the expression levels of the markers in the ventral midbrains, where dopaminergic neurons were most abundantly distributed, were analyzed. The control is marked as “Vehicle” in FIGS. 6 and 7.
# Proteins and mRNAs isolated from the brains of the sacrificed embryos were analyzed by RT-PCR.
# [5] = test system: mouse neural stem cells; experiment: Apoptosis analysis by annexin-V/PI flow cytometry; assay type: cell-based; settings: 10 μM, 4 days
# Method: Finally, the number of the cells was counted using a FACS Calibur flow cytometer (BD Biosciences, USA). Apoptosis was analyzed as follows. The cells were washed twice with cold PBS, treated with propidium iodide (PI) and Annexin V FITC at room temperature, and cultured for 15 min. PI and FITC fluorescence intensities were measured using a FACS flow cytometer. Data were analyzed with the Cell-quest FACS analysis software (BD Biosciences). The results are shown in FIGS. 2A, 2B, 2C, 3A, 3B and 3C. FIGS. 2A, 2B, 2C, 3A, 3B and 3C show the results of flow cytometry for the neural progenitor cells (undifferentiated; UD) cultured in Example 1, the differentiated cells (D) cultured in Comparative Example 1, and the AS703026-treated cells (UD+AS) cultured in Example 2 to identify the cycles of the cells. Specifically, FIGS. 2A, 2B and 2C are histograms showing the results of flow cytometry for the cells stained with PI. FIGS. 3A, 3B and 3C are scatter plot diagrams showing the results of flow cytometry for the cells stains with annexin-V/PI.
# [6] = test system: mouse neural stem cells; experiment: Cell cycle analysis by PI staining and flow cytometry; assay type: cell-based; settings: 10 μM, 4 days; PI staining; FIG. 2C
# Method: Specifically, the cell cycles were analyzed by the following procedure. First, the cells (Example 1, Example 2, and Comparative Example 1) were washed twice with cold PBS and fixed in cold 70% ethanol for 30 min. The ethanol was removed by centrifugation, the cells were suspended, and the number of the cells was adjusted to 10^6/ml. The cells were washed twice with PBS, treated with 50 μg/ml propidium iodide (PI) at room temperature in the presence of RNase, and cultured for 30 min. Finally, the number of the cells was counted using a FACS Calibur flow cytometer (BD Biosciences, USA). Apoptosis was analyzed as follows. The cells were washed twice with cold PBS, treated with propidium iodide (PI) and Annexin V FITC at room temperature, and cultured for 15 min. PI and FITC fluorescence intensities were measured using a FACS flow cytometer. Data were analyzed with the Cell-quest FACS analysis software (BD Biosciences). The results are shown in FIGS. 2A, 2B, 2C, 3A, 3B and 3C. FIGS. 2A, 2B, 2C, 3A, 3B and 3C show the results of flow cytometry for the neural progenitor cells (undifferentiated; UD) cultured in Example 1, the differentiated cells (D) cultured in Comparative Example 1, and the AS703026-treated cells (UD+AS) cultured in Example 2 to identify the cycles of the cells. […]
# [7] = test system: mouse neural stem cells; experiment: Immunoblot analysis of marker expression in cultured neural stem cells; assay type: cell-based
# Method: Mouse neural stem cells were cultured in accordance with the procedure of Example 1. […] The cells were cultured for 4 days. Neurospheres were treated with TrypLE and separated into single cells, which were uniformly seeded into a culture dish coated with 15 μg/ml poly-L-ornithine and 10 μg/ml fibronectin. Following culture, the morphology of the cells was observed. In this example, it was confirmed whether dopaminergic neurons were differentiated from neural stem cells. To this end, immunoblot analysis and immunocytochemical analysis were performed on the neural progenitor cells (undifferentiated; UD) cultured in Example 1, the differentiated cells (D) cultured in Comparative Example 1, and the AS703026-treated cells (UD+AS) cultured in Example 2, and the results were compared. The immunoblot analysis was performed by the following procedure. First, the cells were washed with ice-cold phosphate-buffered saline (PBS) and lysed with 1×RIPA buffer (10 mM HEPES, 1.5 mM MgCl2, 10 mM KCl, 0.01 M DTT, protease inhibitors, pH 7.9). The cell homogenate was heated at 100° C. for 10 min and subjected to 10-12% SDS-polyacrylamide gel electrophoresis. Proteins were electrophoretically transferred to a nitrocellulose membrane and blocked with 5% non-fat dry milk in TBS-Tween 20 (0.1%, v/v) for 1 h. Western blotting was performed using anti-Tuj1, anti-GFAP or anti-MBP antibodies and successively horseradish peroxidase-conjugated anti-rabbit or anti-mouse IgG secondary antibodies. The protein bands were visualized using enhanced chemiluminescence (ECL, lab made) and detected with LAS-3000 (FUJIFILM, Tokyo, Japan). FIGS. 4 and 5 show the results of immunoblot analysis (FIG. 4) and immunocytochemical analysis (FIG. 5) for the neural progenitor cells (undifferentiated; UD) cultured in Example 1, the differentiated cells (D) cultured in Comparative Example 1, and the AS703026-treated cells (UD+AS) cultured in Example 2 to determine whether dopaminergic neurons were differentiated from the neural stem cells. […] The AS703026-treated cells were cultured in the same manner as in Example 2. […]
# [8] = test system: mouse neural stem cells; experiment: Immunocytochemical analysis of marker expression in cultured neural stem cells; assay type: cell-based; settings: 10 μM, 4 days
# Method: Mouse neural stem cells were cultured in accordance with the procedure of Example 1. […] The cells were cultured for 4 days. Neurospheres were treated with TrypLE and separated into single cells, which were uniformly seeded into a culture dish coated with 15 μg/ml poly-L-ornithine and 10 μg/ml fibronectin. Following culture, the morphology of the cells was observed. […] In this example, it was confirmed whether dopaminergic neurons were differentiated from neural stem cells. To this end, immunoblot analysis and immunocytochemical analysis were performed on the neural progenitor cells (undifferentiated; UD) cultured in Example 1, the differentiated cells (D) cultured in Comparative Example 1, and the AS703026-treated cells (UD+AS) cultured in Example 2, and the results were compared. The immunocytochemical analysis was performed by the following procedure. First, the cells were fixed in 4% para-formaldehyde at room temperature for 10 min, washed with PBS, and incubated with 0.2% Triton X-100 at room temperature for 15 min. After blocking with 10% BSA at room temperature for 1 h, the cells were incubated with anti-Tuj1 (Covance, Princeton, N.J.), anti-GFAP (Biogenex, San Ramon, Calif.), anti-MBP (Abcam), anti-Ki67 (Abcam), anti-p-ERK1/2 or anti-TH antibodies at 4° C. overnight, and cultured using Alexa Fluor 488- or Alexa Fluor 555-conjugated IgG secondary antibodies (Molecular Probes, Eugene, Oreg.) at room temperature for 1 h. Subsequently, the cells were cultured with 1 μg/ml 4′,6-diamidino-2-phenylindole (DAPI) for 5 min, the inlet was sealed with a coverslip, and the cells were observed using a confocal microscope. FIGS. 4 and 5 show the results of immunoblot analysis (FIG. 4) and immunocytochemical analysis (FIG. 5) for the neural progenitor cells (undifferentiated; UD) cultured in Example 1, the differentiated cells (D) cultured in Comparative Example 1, and the AS703026-treated cells (UD+AS) cultured in Example 2 to determine whether dopaminergic neurons were differentiated from the neural stem cells.
# [9] = i.p. to pregnant mice from 10.5 days of gestation, daily for 4 days, vs distilled water
smiles,measurement,setting,value
O=C(NOCC(O)CO)c1cc(Br)c(F)c(F)c1Nc1ccc(I)cc1F (centres unmarked) [PD318088],morphology of treated cells,[1],neuron-like morphological changes
same,Tuj1 (marker of neurons) expression,[2],expressed only
same,tyrosine hydroxylase (TH) expression,[2],expressed only
Cc1cc(C(=O)NOCCO)c(Nc2ccc(I)cc2F)n(C)c1=O [AZD8330],morphology of treated cells,[1],neuron-like morphological changes
same,Tuj1 (marker of neurons) expression,[2],expressed only
same,tyrosine hydroxylase (TH) expression,[2],expressed only
COc1cc(F)c(F)c(Nc2ccc(I)cc2F)c1NS(=O)(=O)C1(C[C@H](O)CO)CC1 [Refametinib],morphology of treated cells,[1],neuron-like morphological changes
same,Tuj1 (marker of neurons) expression,[2],expressed only
same,tyrosine hydroxylase (TH) expression,[2],expressed only
COc1cccc(-c2cc(=O)c3ccccc3o2)c1N [PD98059],induction of differentiation of neural stem cells into dopaminergic neurons,[3],does not induce substantial differentiation
"O=C(NC[C@H](O)CO)c1ccncc1Nc1ccc(I)cc1F [AS703026, N-[(2S)-2,3-dihydroxypropyl]-3-[(2-fluoro-4-iodophenyl)amino]isonicotinamide hydrochloride]",morphology of treated cells,[1],neuron-like morphological changes
same,number of dopaminergic neurons formed in embryo brains vs non-administered animals,[4]; i.p. to pregnant mice at 10.5 days of gestation,approximately twice as large
same,expression level of TH in embryo brains vs control,[4]; [9],significantly higher
same,expression level of Tuj1 in embryo brains vs control,[4]; [9],significantly higher
same,immune response to GFAP in embryo brains,"[4]; i.p. to pregnant mice, 4 days",No immune responses
same,immune response to MBP in embryo brains,"[4]; i.p. to pregnant mice, 4 days",No immune responses
same,differentiation into dopaminergic neurons in embryos (RT-PCR),"[4]; i.p. to pregnant mice, 4 days, FIG. 7",increased differentiation
same,expression level of GFAP (astrocyte differentiation factor),"[2]; 10 μM, compared with Tuj1",lower than that of Tuj1
same,expression level of MBP (oligodendrocyte differentiation factor),"[2]; 10 μM, compared with Tuj1",lower than that of Tuj1
same,"expression level of Tuj1 (neuronal differentiation factor), times higher than UD and D cells","[2]; 10 μM, vs undifferentiated (UD) and differentiated (D) cells, FIG. 1A",at least 10 times
same,Tuj1 (marker of neurons) expression,[2],expressed only
same,tyrosine hydroxylase (TH) expression,[2],expressed only
same,apoptosis,[5],does not induce apoptosis
same,cell cycle,[6],arrested in the G0/G1 phase
same,expression pattern of TH compared with cells of Example 2 (10 μM),"[7]; 1 μM (UD+AS, 1)",similar
same,expression pattern of TH compared with cells of Example 2 (10 μM),"[7]; 5 μM (UD+AS, 5)",similar
same,"tyrosine hydroxylase (TH) expression, immunoblot","[7]; 10 μM, 4 days, vs UD and D cells, FIG. 4",expressed only
same,immune response to GFAP,[8],No immune responses
same,immune response to MBP,[8],No immune responses
same,number of clusters of dopaminergic neurons from which neurites extended outward,[8]; FIG. 1B,increase
same,number of dopaminergic neurons differentiated (Tuj1 immunocytochemistry),[8]; FIG. 1B,considerable increase
same,"tyrosine hydroxylase (TH) expression, immunocytochemistry","[8]; vs UD and D cells, FIG. 5",expressed only
